Experimental data published in patent US6849664B2, “Process for disposing biocide-containing cooling water” (priority 2001, dated 2005).
Where two headings read alike, the source gives them in different places.

How the values were obtained:
bacterial inoculum [1] = experiment: Neutralization of biocides with MEA, microbial growth in minimal media / Fischer-Tropsch diesel fuel; format: cell-based
Procedure: Growth Media: A standard minimal media containing only inorganic nutrients required for bacterial growth was used. The medium used to supply inorganic micronutrients to the growing culture of alkane degrading organisms consists of 0.1 g/L MgSO4.7H2O, 0.5 g/L NaNO3, 0.02 mM FeSO4 and 0.63 g/L K2HPO4 and 0.19 g/L KH2PO4 to achieve a pH of 7 to 7.3.
Test Conditions: 90 ml of media and 10 ml of the product to be tested (n-C16) were added to 250 ml flasks. […] After inoculation, the flasks were placed on a shaker-table (135 rpm) at room temperature in contact with air and observed daily.
In all experiments, a 10:1 ratio of minimal media to Fischer-Tropsch diesel fuel were prepared and evaluated in 250 ml flasks.

[2] = test system: Larval Sheepshead Minnow (Cyprinodon variegatus); conditions: in vivo, 96 h
Procedure: […]. EPA/600/4-90/027F Washington, D.C.) conducted at Pacific Eco-Risk Laboratories, Martinez, Calif.
LOEC is the Lowest Observable Effect Concentration and is defined as the minimum concentration where mortality is observed for the test species. […] LC-50, the concentration that will cause mortality of 50% of the organisms tested within 96 h, is a calculated value based on all observations.

bacterial inoculum [3] = conditions: for neutralizing 10 ppm of glutaraldehyde: two moles of nitrogen-containing compound to glutaraldehyde
Procedure: A series of different nitrogen-containing compounds were evaluated as materials to neutralize glutaraldehyde. For these experiments, 10:1 ratio of minimal media to n-C16 were prepared, mixed with 10 ppm of glutaraldehyde (G) and evaluated in 250 ml flasks.
Two moles of each of the nitrogen-containing compound to glutaraldehyde were added to the flasks. Then 10 μl of the bacterial inoculum was added to each flask.
Control samples were also run with the nitrogen-containing compound and without the glutaraldehyde. These control samples permitted an assessment of the toxicity of the nitrogen-containing compound.

bacteria = experiment: Neutralization of glutaraldehyde with H2O2 and NH4Cl, microbial growth test; format: cell-based
Procedure: […]. In this experiment, minimal medium, containing 1, 10 or 100 ppm of glutaraldehyde, were mixed with a five times molar excess of H2O2 or NH4Cl. Hydrocarbonaceous product and bacteria were then added to the mixture. While microbial growth was observed after 5 days in control samples containing no glutaraldehyde, no growth was observed after 14 days in samples containing glutaraldehyde and H2O2 or NH4Cl. […].

[4] = 10 ppm glutaraldehyde with two moles of the nitrogen-containing compound to glutaraldehyde, time 0 days
[5] = 10 ppm glutaraldehyde with two moles of the nitrogen-containing compound to glutaraldehyde, time 1 days
[6] = 10 ppm glutaraldehyde with two moles of the nitrogen-containing compound to glutaraldehyde, time 2 days
[7] = 10 ppm glutaraldehyde with two moles of the nitrogen-containing compound to glutaraldehyde, time 6 days
[8] = 10 ppm glutaraldehyde with two moles of the nitrogen-containing compound to glutaraldehyde, time 7 days
[9] = 10 ppm glutaraldehyde with two moles of the nitrogen-containing compound to glutaraldehyde, time 9 days
[10] = 10 ppm glutaraldehyde with two moles of the nitrogen-containing compound to glutaraldehyde, time 13 days
[11] = 10 ppm glutaraldehyde with two moles of the nitrogen-containing compound to glutaraldehyde, time 20 days
[12] = control: nitrogen-containing compound without the glutaraldehyde, time 0 days
[13] = control: nitrogen-containing compound without the glutaraldehyde, time 1 days
[14] = control: nitrogen-containing compound without the glutaraldehyde, time 2 days
[15] = control: nitrogen-containing compound without the glutaraldehyde, time 6 days
[16] = control: nitrogen-containing compound without the glutaraldehyde, time 7 days
[17] = control: nitrogen-containing compound without the glutaraldehyde, time 9 days
[18] = control: nitrogen-containing compound without the glutaraldehyde, time 13 days
[19] = control: nitrogen-containing compound without the glutaraldehyde, time 20 days

Structure (SMILES): O=CCCCC=O [Glutaraldehyde, glutaraldehyde]
- Growth / No Growth (bacterial inoculum [1]; 1 ppm G, time 0 days): −
- Growth / No Growth (bacterial inoculum [1]; 1 ppm G, time 1 days): −
- Growth / No Growth (bacterial inoculum [1]; 1 ppm G, time 2 days): −
- Growth / No Growth (bacterial inoculum [1]; 1 ppm G, time 3 days): −
- Growth / No Growth (bacterial inoculum [1]; 1 ppm G, time 7 days): −
- Growth / No Growth (bacterial inoculum [1]; 1 ppm G, time 9 days): +
- Growth / No Growth (bacterial inoculum [1]; 1 ppm G, time 14 days): +
- Growth / No Growth (bacterial inoculum [1]; 10 ppm G, time 0 days): −
- Growth / No Growth (bacterial inoculum [1]; 10 ppm G, time 1 days): −
- Growth / No Growth (bacterial inoculum [1]; 10 ppm G, time 2 days): −
- Growth / No Growth (bacterial inoculum [1]; 10 ppm G, time 3 days): −
- Growth / No Growth (bacterial inoculum [1]; 10 ppm G, time 7 days): −
- Growth / No Growth (bacterial inoculum [1]; 10 ppm G, time 9 days): −
- Growth / No Growth (bacterial inoculum [1]; 10 ppm G, time 14 days): −
- Growth / No Growth (bacterial inoculum [1]; 100 ppm G, time 0 days): −
- Growth / No Growth (bacterial inoculum [1]; 100 ppm G, time 1 days): −
- Growth / No Growth (bacterial inoculum [1]; 100 ppm G, time 2 days): −
- Growth / No Growth (bacterial inoculum [1]; 100 ppm G, time 3 days): −
- Growth / No Growth (bacterial inoculum [1]; 100 ppm G, time 7 days): −
- Growth / No Growth (bacterial inoculum [1]; 100 ppm G, time 9 days): −
- Growth / No Growth (bacterial inoculum [1]; 100 ppm G, time 14 days): −
- LOEC [2]: 25 mg/L
- NOEC [2]: 13 mg/L

Structure (SMILES): OCCNCCO [DEA, Diethanolamine]
- toxicity of the nitrogen-containing compound to microbial growth (bacterial inoculum [3]): not excessively toxic
- Growth / No Growth (bacterial inoculum [3]; [4]): −
- Growth / No Growth (bacterial inoculum [3]; [5]): +
- Growth / No Growth (bacterial inoculum [3]; [6]): +
- Growth / No Growth (bacterial inoculum [3]; [7]): +
- Growth / No Growth (bacterial inoculum [3]; [8]): +
- Growth / No Growth (bacterial inoculum [3]; [9]): +
- Growth / No Growth (bacterial inoculum [3]; [10]): +
- Growth / No Growth (bacterial inoculum [3]; [11]): +
- Growth / No Growth (bacterial inoculum [3]; [12]): −
- Growth / No Growth (bacterial inoculum [3]; [13]): −
- Growth / No Growth (bacterial inoculum [3]; [14]): −
- Growth / No Growth (bacterial inoculum [3]; [15]): +
- Growth / No Growth (bacterial inoculum [3]; [16]): +
- Growth / No Growth (bacterial inoculum [3]; [17]): +
- Growth / No Growth (bacterial inoculum [3]; [18]): +
- Growth / No Growth (bacterial inoculum [3]; [19]): −
- neutralizing 10 ppm of glutaraldehyde (bacterial inoculum [3]): effective

Structure (SMILES): Nc1ccccc1 [aniline, Aniline]
- toxicity of the nitrogen-containing compound to microbial growth (bacterial inoculum [3]): excessively toxic
- Growth / No Growth (bacterial inoculum [3]; [4]): −
- Growth / No Growth (bacterial inoculum [3]; [5]): −
- Growth / No Growth (bacterial inoculum [3]; [6]): −
- Growth / No Growth (bacterial inoculum [3]; [7]): −
- Growth / No Growth (bacterial inoculum [3]; [8]): −
- Growth / No Growth (bacterial inoculum [3]; [9]): −
- Growth / No Growth (bacterial inoculum [3]; [10]): −
- Growth / No Growth (bacterial inoculum [3]; [11]): −
- Growth / No Growth (bacterial inoculum [3]; [12]): −
- Growth / No Growth (bacterial inoculum [3]; [13]): −
- Growth / No Growth (bacterial inoculum [3]; [14]): −
- Growth / No Growth (bacterial inoculum [3]; [15]): −
- Growth / No Growth (bacterial inoculum [3]; [16]): −
- Growth / No Growth (bacterial inoculum [3]; [17]): −
- Growth / No Growth (bacterial inoculum [3]; [18]): −
- Growth / No Growth (bacterial inoculum [3]; [19]): −

Structure (SMILES): CCNCC [diethylamine, Diethylamine]
- toxicity of the nitrogen-containing compound to microbial growth (bacterial inoculum [3]): not excessively toxic
- Growth / No Growth (bacterial inoculum [3]; [4]): −
- Growth / No Growth (bacterial inoculum [3]; [5]): −
- Growth / No Growth (bacterial inoculum [3]; [6]): −
- Growth / No Growth (bacterial inoculum [3]; [7]): +
- Growth / No Growth (bacterial inoculum [3]; [8]): +
- Growth / No Growth (bacterial inoculum [3]; [9]): +
- Growth / No Growth (bacterial inoculum [3]; [10]): +
- Growth / No Growth (bacterial inoculum [3]; [11]): +
- Growth / No Growth (bacterial inoculum [3]; [12]): −
- Growth / No Growth (bacterial inoculum [3]; [13]): −
- Growth / No Growth (bacterial inoculum [3]; [14]): −
- Growth / No Growth (bacterial inoculum [3]; [15]): +
- Growth / No Growth (bacterial inoculum [3]; [16]): +
- Growth / No Growth (bacterial inoculum [3]; [17]): +
- Growth / No Growth (bacterial inoculum [3]; [18]): +
- Growth / No Growth (bacterial inoculum [3]; [19]): +
- neutralizing 10 ppm of glutaraldehyde (bacterial inoculum [3]): effective

Structure (SMILES): NCCO [MEA, monoethanolamine]
- LOEC [2]: 1700 mg/L
- NOEC [2]: 1000 mg/L
- toxicity of the nitrogen-containing compound to microbial growth (bacterial inoculum [3]): not excessively toxic
- Growth / No Growth (bacterial inoculum [3]; [4]): −
- Growth / No Growth (bacterial inoculum [3]; [5]): −
- Growth / No Growth (bacterial inoculum [3]; [6]): −
- Growth / No Growth (bacterial inoculum [3]; [7]): +
- Growth / No Growth (bacterial inoculum [3]; [8]): +
- Growth / No Growth (bacterial inoculum [3]; [9]): +
- Growth / No Growth (bacterial inoculum [3]; [10]): +
- Growth / No Growth (bacterial inoculum [3]; [11]): +
- Growth / No Growth (bacterial inoculum [3]; [12]): −
- Growth / No Growth (bacterial inoculum [3]; [13]): −
- Growth / No Growth (bacterial inoculum [3]; [14]): −
- Growth / No Growth (bacterial inoculum [3]; [15]): −
- Growth / No Growth (bacterial inoculum [3]; [16]): +
- Growth / No Growth (bacterial inoculum [3]; [17]): +
- Growth / No Growth (bacterial inoculum [3]; [18]): +
- Growth / No Growth (bacterial inoculum [3]; [19]): +
- neutralizing 10 ppm of glutaraldehyde (bacterial inoculum [3]): effective

Structure (SMILES): Cl.N [NH4Cl]
- microbial growth (bacteria): no growth

Structure (SMILES): OO [H2O2]
- microbial growth (bacteria): no growth
